Format in all cases: in vivo, human
One data set deals with microvasculature. Put plainly: Contrast imaging of microvascular blood flow / vessel density after infusion. As to the method:
When it is used for decreasing microvascular blood flow according to the present invention, the dose of the immune checkpoint inhibitor to be administered will vary depending on the type of the immune checkpoint inhibitor to be administered, though a skilled person can calculate an appropriate amount.
It was shown that each of the immune checkpoint inhibitors causes a clear change in tumor hemodynamics by single-agent administration 2 to 3 minutes after the infusion from the tumor vessel. Moreover, an immediate relief from cancerous pain by administration is also confirmed. Adding to these, their original effect of inhibiting immune checkpoint can also be expected, providing a prospective of relatively longer lasting effect by administration of single agent.
In all cases, fat suppression T2-weighted MRI image was obtained before treatment to select target vessels. 3Fr intraarterial-indwelling sheath (Medikit Co., Ltd.) was inserted from femoral artery by Seldinger method, allowed to reach the target vessel using 3Fr angiography catheter (Medikit Co., Ltd.), Radifocus 0.032″ external diameter guide wire (TERUMO Corp.), and microcatheter ASAHI Tellus C3, ASAHI Meister 0.016″ micro guide wire (ASAHI INTECC Co., Ltd.) as appropriate, then abnormal vascular networks are identified by contrast imaging. […]

The next data set has as its system BCR-ABL mRNA. Kind of data set: % IS of BCR-ABL mRNA, marker for chronic myeloid leukemia, before and after endovascular therapy. As to conditions: Patient D, after endovascular therapy for bladder cancer (time point 2 to 3, FIG. 4). As to the method:
(§1) This patient was subjected to an endovascular therapy using nivolumab 10 mg, bortezomib 0.7 mg, etanercept 25 mg, maxacalcitol 10 μg, and thrombomodulin 3200 U, and was marked as CR by such treatment. […] FIG. 4 is a graph showing the transition of % IS of BCR-ABL mRNA before and after the endovascular therapy for the […] in this patient.

The test system of the next data set is tumor. Kind of data set: Endovascular therapy case reports, tumor response (Example 3). Further details: key: CR indicates an elimination of tumor from the imaging; PR indicates >50% reduction of tumor diameter; MR indicates >30% reduction of tumor diameter; NC indicates <30% reduction of tumor diameter; PD indicates an increase in tumor diameter. On the procedure:
Short-term tumor-reducing effect in 1 month after the administration was assessed by MRI or CT imaging. In the table, CR indicates an elimination of tumor from the imaging, PR indicates >50% reduction of tumor diameter, MR indicates >30% reduction of tumor diameter, NC indicates <30% reduction of tumor diameter, and PD indicates an increase in tumor diameter.
To Patient A who had suffered from breast cancer, an endovascular therapy was carried out using nivolumab 10 mg, pertuzumab 60 mg, bortezomib 0.7 mg, thrombomodulin 3200 U and maxacalcitol 10 μg. This patient was marked as CR by such treatment.
To Patient B who had suffered from malignant fibrous histiocytoma in right femur, an endovascular therapy was carried out using 20 mg of nivolumab. This patient was marked as CR after 3 treatments using 20 mg of nivolumab per each administration.
To Patience C who had suffered from hepatitis C and had developed liver cancer, an endovascular therapy was carried out using nivolumab 10 mg, bortezomib 0.7 mg, etanercept 25 mg, maxacalcitol 10 μg and imipenem/cilastatin sodium 500 mg/body for each administration. This patient was marked as CR after two treatments.
as §1

The test system of data set [1] is blood vessels at a site having prolonged pain. Put plainly: Endovascular therapy to blood vessels at a site having prolonged pain, symptom improvement and side effects (Example 4). Also noted: key to Effect (improvement in symptoms): an exacerbation in symptom=0; no change=1; an improvement in symptom and easiness in dairy living=2; almost satisfactory improvement=3; Side effect: scale not given here. On the procedure: To 14 subject cases indicated in the table below who had blood vessels at a site having prolonged pain, endovascular therapy was carried out as follows, using pembrolizumab.
In all cases, fat suppression T2-weighted MRI image was obtained before treatment to select target vessels. 3Fr intraarterial-indwelling sheath (Medikit Co., Ltd.) was inserted from femoral artery by Seldinger method, allowed to reach the target vessel using 3Fr angiography catheter (Medikit Co., Ltd.), Radifocus 0.032″ external diameter guide wire (TERUMO Corp.), and microcatheter ASAHI Tellus C3, ASAHI Meister 0.016″ micro guide wire (ASAHI INTECC Co., Ltd.) as appropriate, then abnormal vascular networks are identified by contrast imaging.
Subsequently, as shown in the table, pembrolizumab 1 to 4 mg/body (mean=1.86 mg/body, median=2 mg/body) was mixed with the combined drugs in 100 ml of physiological saline, stirred with a stirrer while being infused into the target vessel in an amount such that a sufficient decrease in abnormal vessel density was confirmed.
The level of post-treatment improvement in symptoms was assessed after 3 weeks or longer. A stepwise assessment was done as follows: an exacerbation in symptom=0, no change=1, an improvement in symptom and easiness in dairy living=2, almost satisfactory improvement=3.

Entries after “also recorded” stand apart in the source; their conditions may differ.

Take ipilimumab: the “tumor vessel density-decreasing effect” value in the data set on microvasculature (by itself, injection into nutrient artery) is “strong tumor vessel density-decreasing effect”.
With nivolumab, the “% IS of BCR-ABL mRNA” value in the data set with BCR-ABL mRNA is “decreased”. Besides, the tumor response result in the data set on tumor (Patient A, breast cancer, nivolumab 10 mg with pertuzumab 60 mg, bortezomib 0.7 mg, thrombomodulin 3200 U, maxacalcitol 10 μg) is listed as “CR”; with tumor (Patient B, malignant fibrous histiocytoma in right femur (metastasis to lung), after 3 treatments, 20 mg of nivolumab per administration) it was “CR”; in the data set with tumor (Patient C, liver cancer (hepatitis C), stage II, after two treatments, nivolumab 10 mg with bortezomib 0.7 mg, etanercept 25 mg, maxacalcitol 10 μg, imipenem/cilastatin sodium 500 mg/body), “CR”; with tumor (Patient D, bladder cancer (chronic myeloid leukemia), stage II, nivolumab 10 mg with bortezomib 0.7 mg, etanercept 25 mg, maxacalcitol 10 μg, thrombomodulin 3200 U) it was “CR”.
Regarding pembrolizumab, in the data set with microvasculature (Cases 7 and 8, 2 minutes after drug administration (FIGS. 5 and 6)), the abnormal microvascular density entry is listed as “significant decrease in abnormal microvascular density”. For the same substance, the Side effect was found to be 0 in data set [1] (Case 1, Left gonarthritis, P 1 mg/body + imp/cs 500, bv 50, bort 0.35, maxa 10); 0 in data set [1] (Case 2, Elbow joint RA, P 4 mg/body + eta 25, bort 0.35, imp/cs 500); 0 in data set [1] (Case 3, Hip osteoarthritis, P 3 mg/body + eta 25, bort 0.35, maxa 10, imp/cs 501); 0 in data set [1] (Case 4, Left shoulder pain, P 3 mg/body + bort 0.35); 0 in data set [1] (Case 5, Lumbar spinal stenosis, P 2 mg/body + bort 0.36); 0 in data set [1] (Case 6, Right foot Lisfranc joint injury, P 1 mg/body + bv 50, bort 0.35, eta 25, maxa 10). In addition, the Side effect is 0 in data set [1] (Case 7, Low back pain after spinal compression fracture, P 1 mg/body + bort 0.35, eta 25, maxa 10, reco 3200); 0 in data set [1] (Case 8, Right knee RA, P 2 mg/body + bort 0.35, eta 25, reco 3200); 0 in data set [1] (Case 9, Bilateral knee joint replacement postoperation, P 2 mg/body + eta 25, imp/cs 500); 0 in data set [1] (Case 10, Piriformis syndrome, P 1 mg/body + bort 0.35, eta 25, reco 3200); 0 in data set [1] (Case 11, Left Achilles peritendinitis, P 1 mg/body); 0 in data set [1] (Case 12, Bilateral gonarthrosis, P 2 mg/body). Further, the Side effect in data set [1] (Case 13, Left gonarthrosis, foot arthritis, P 2 mg/body) amounted to 0; in data set [1] (Case 14, Right foot joint MFP syndrome, P 1 mg/body), 0. Also, the “Effect (improvement in symptoms)” value in data set [1] (Case 1, Left gonarthritis, P 1 mg/body + imp/cs 500, bv 50, bort 0.35, maxa 10, after 3 weeks or longer) was determined as 1; in data set [1] (Case 2, Elbow joint RA 5 y, P 4 mg/body + eta 25, bort 0.35, imp/cs 500, after 3 weeks or longer), 3; in data set [1] (Case 3, Hip osteoarthritis 5 y, P 3 mg/body + eta 25, bort 0.35, maxa 10, imp/cs 501, after 3 weeks or longer) it was 3; in data set [1] (Case 4, Left shoulder pain, P 3 mg/body + bort 0.35, after 3 weeks or longer), 3; in data set [1] (Case 5, Lumbar spinal stenosis 5 y, P 2 mg/body + bort 0.36, after 3 weeks or longer), 2; in data set [1] (Case 6, Right foot Lisfranc joint injury, P 1 mg/body + bv 50, bort 0.35, eta 25, maxa 10, after 3 weeks or longer), 3. Moreover, the “Effect (improvement in symptoms)” value turned out to be 2 in data set [1] (Case 7, Low back pain after spinal compression fracture 1.5 y, P 1 mg/body + bort 0.35, eta 25, maxa 10, reco 3200, after 3 weeks or longer); 2 in data set [1] (Case 8, Right knee RA 3.8 y, P 2 mg/body + bort 0.35, eta 25, reco 3200, after 3 weeks or longer); 1 in data set [1] (Case 9, Bilateral knee joint replacement postoperation 1.5 y, P 2 mg/body + eta 25, imp/cs 500, after 3 weeks or longer); 2 in data set [1] (Case 10, Piriformis syndrome, P 1 mg/body + bort 0.35, eta 25, reco 3200, after 3 weeks or longer); 3 in data set [1] (Case 11, Left Achilles peritendinitis, P 1 mg/body, no combined drug printed, after 3 weeks or longer); 2 in data set [1] (Case 12, Bilateral gonarthrosis, P 2 mg/body, no combined drug printed, after 3 weeks or longer). Further, the “Effect (improvement in symptoms)” value in data set [1] (Case 13, Left gonarthrosis, foot arthritis, P 2 mg/body, no combined drug printed, after 3 weeks or longer) is recorded as 1; in data set [1] (Case 14, Right foot joint MFP syndrome, P 1 mg/body, no combined drug printed, after 3 weeks or longer), 2. Moreover, the “side effects considered to be caused by the therapy” value in data set [1] (all 14 cases, including minor side effects such as transient fever) was “No side effect; also recorded: without any side effects”. Besides, in data set [1] (out of 14 cases, pembrolizumab 1 to 4 mg/body into target vessel, after 3 weeks or longer), the “cases with rating of 2 or more (improvement in symptom)” value was 11. In addition, in data set [1] (selective arterial infusion to the site of pain, 1 to 2 mg/body, diluted at 1 to 2% in physiological saline), the chronic pain result was “cancellation of chronic pain”.
